Where a name gives a salt, the structure may show the parent alone.

Assay [1] has as its target T1, human p120γ subunit of PI3K (Homo sapiens, UniProt P48736).
T1 construct: Upstate Group, Charlottesville, Va; (ran the assay under contract)
As to the kind of experiment: PI3K p120γ enzymatic activity at two concentrations (Upstate Group). The format is biochemical. To be noted: 100% = no inhibition, 0% = complete inhibition; for remaining activity at 0.5 µM: read-out: Percent Control Value at 0.5 μM; for remaining activity at 5 µM: read-out: Percent Control Value at 5 μM. Here is the method: The ability of compounds to inhibit the activity of PI3K kinase was determined using biochemical assays. In a first assay, compounds were tested at two concentrations (0.5 and 5 μM) for their ability to inhibit enzymatic activity of the human p120γ subunit of PI3K (the assay being performed under contract by Upstate Group, Charlottesville, Va.).

The target of a further assay is T2, recombinant human c-Src (Homo sapiens, UniProt P12931).
T2 construct: purchased Panvera, Madison Wis
As to the kind of experiment: c-Src kinase inhibition, KinaseGlo residual ATP. Type of assay: biochemical. The following applies: ATP 3 μM, 90 minutes at room temperature. From the text: (§1) The ability of compounds to inhibit the activity of two Src-family kinases (c-Src and Yes) was directly tested.

The next assay deals with T3, recombinant human Yes (Homo sapiens, UniProt P07947).
T3 construct: purchased Panvera, Madison Wis
As to the kind of experiment: Yes kinase inhibition, KinaseGlo residual ATP. The format is biochemical. The following applies: ATP 3 μM, 90 minutes at room temperature.
Text: as §1
In general terms: Kinase-Glo measures the ATP left after a reaction by luminescence.

Assay [2] addresses recombinant phosphatidylinositol 3-kinase-p120γ (PI3K) (Homo sapiens, UniProt P48736). Put plainly: biochemical.
The next assay deals with acute myocardial infarct. Put plainly: Rat acute myocardial infarct model (60 min LAD occlusion, reperfusion). The format is in vivo, Sprague-Dawley rats. To be noted: 1.0 mg/kg IV at 90 min post-reperfusion; 24 hr; vs vehicle. Here is the method:
A rodent model of acute myocardial infarct, in which the proximal left anterior descending coronary artery (LAD) is occluded for 60 min followed by reperfusion, was used to determine whether test agents reduced infarct size at 24 hours.
Myocardial infarcts were created in Sprague-Dawley rats (200-300 g body weight) by a 60 min occlusion of the LAD followed by LAD reperfusion. At 90 min post-reperfusion, either vehicle alone or test agents were injected IV. At 24 hr post-treatment, the ischemic zone (area at-risk, AAR) was delineated by re-ligation of the LAD followed by IV injection of alkali blue dye, after which hearts were sectioned along the short axis and stained using triphenyltetrazolium chloride to delineate viable from infarcted myocardium. Photographic images were then analyzed using morphometric software to calculate infarct area as a percent of the at-risk area.
The following studies were performed as described above, except that the timing of 3-[2,4-diamino-6-(3-hydroxyphenyl)pteridin-7-yl] phenol dihydrochloride salt administration (at 0.1 mg/kg) was varied. In one group, 3-[2,4-diamino-6-(3-hydroxyphenyl)pteridin-7-yl] phenol dihydrochloride salt was administered at both 60 and 240 min post-occlusion.
In a porcine MI model (90 min of LAD occlusion followed by complete reperfusion), a single 0.3 mg/kg IV bolus delivered 30 min post-reperfusion reduced infarct size by […] vs. controls (40% vs. 56%, N=12-13, P=0.03).

The test system of a further assay is VEGF-induced edema. Put plainly: Miles assay, VEGF-induced edema. The format is in vivo, Sprague-Dawley rats. The following applies: VEGF 200 ng/site, 45 min, vehicle 12. How it is done:
A rodent model of vascular edema, the Miles assay, was used to screen compounds for their ability to inhibit VEGF-induced edema.
Sprague-Dawley rats were first injected IV with vehicle alone or test agent, followed by IV injection of Evans blue dye, followed by intradermal injections of saline and VEGF (200 ng/injection site) along both shaved flanks. After 45 min, intradermal injection sites were photographed and then scored by a blinded observer for extravasation of Evans blue dye into the dermis (dermal bluing) according to a 4 point scoring system (3=maximal bluing, ≧75% of response in vehicle-treated animals; 2=medium bluing, >25% but <75% of vehicle-treated animals; 1=minimal bluing, ≦25% of vehicle-treated animals; 0=bluing equivalent to saline injection sites on same animal). Individual scores for 4 injection sites (from 2 separate animals) were summed and are shown as a scale of 0-12, with a lower score indicating the greater anti-edema activity; note that all vehicle-treated groups score a value of 12, based on the scoring system outlined above.

The next assay relates to cerebral stroke. As to the kind of experiment: Cerebral stroke model, permanent middle cerebral artery occlusion. The format is in vivo, mice. To be noted: 1 mg/kg BW IV 60 min after ligation, 24 hours; for % Infarct reduction: vs vehicle. Here is the method:
A rodent model of cerebral stroke, in which the middle cerebral artery is permanently occluded, was used to determine whether test agents reduced infarct size at 24 hours.
Cerebral strokes were created in mice by permanent ligation of the middle cerebral artery using a cauterizing tool, followed 60 min later by IV injection of either vehicle alone (50% PEG400 in water) or test agents (at 1 mg/kg BW). Twenty four hours later, brains were sectioned and stained using triphenyltetrazolium chloride to delineate viable from infarcted tissue. Photographic images were then analyzed using morphometric software to calculate infarct area.

T1 sequence (P48736 whole entry): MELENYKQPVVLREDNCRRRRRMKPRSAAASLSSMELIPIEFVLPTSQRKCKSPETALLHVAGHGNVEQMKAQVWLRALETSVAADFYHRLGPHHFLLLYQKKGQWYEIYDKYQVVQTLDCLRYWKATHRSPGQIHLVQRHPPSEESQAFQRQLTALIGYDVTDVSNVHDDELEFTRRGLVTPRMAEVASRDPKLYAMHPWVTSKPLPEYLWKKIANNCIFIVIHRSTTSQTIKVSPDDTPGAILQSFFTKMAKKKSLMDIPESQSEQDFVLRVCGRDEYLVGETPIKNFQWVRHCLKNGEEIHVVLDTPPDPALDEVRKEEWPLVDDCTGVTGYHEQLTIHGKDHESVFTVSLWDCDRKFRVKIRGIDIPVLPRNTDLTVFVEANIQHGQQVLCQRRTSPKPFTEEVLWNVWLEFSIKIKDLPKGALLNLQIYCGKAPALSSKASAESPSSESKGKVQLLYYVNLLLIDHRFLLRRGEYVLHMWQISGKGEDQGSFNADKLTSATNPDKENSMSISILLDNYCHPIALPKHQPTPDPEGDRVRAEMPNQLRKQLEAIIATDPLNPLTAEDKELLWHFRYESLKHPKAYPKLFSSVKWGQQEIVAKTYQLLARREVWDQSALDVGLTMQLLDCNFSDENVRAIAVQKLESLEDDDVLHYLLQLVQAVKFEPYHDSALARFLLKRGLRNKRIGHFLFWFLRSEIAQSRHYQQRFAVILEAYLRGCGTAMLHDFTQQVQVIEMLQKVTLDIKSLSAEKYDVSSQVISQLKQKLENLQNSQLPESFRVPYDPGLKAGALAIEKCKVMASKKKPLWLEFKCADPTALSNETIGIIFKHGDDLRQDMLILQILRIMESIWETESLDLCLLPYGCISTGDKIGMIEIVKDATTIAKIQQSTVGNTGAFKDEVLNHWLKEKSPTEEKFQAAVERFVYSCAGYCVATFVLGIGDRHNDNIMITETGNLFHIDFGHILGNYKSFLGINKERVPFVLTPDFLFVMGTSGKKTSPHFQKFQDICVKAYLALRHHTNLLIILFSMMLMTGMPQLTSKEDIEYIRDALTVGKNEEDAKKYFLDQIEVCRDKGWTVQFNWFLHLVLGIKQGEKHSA
recombinant phosphatidylinositol 3-kinase-p120γ (PI3K), sequence (P48736 whole entry, the tested form may be a part): as the sequence (P48736 whole entry) above
T3 sequence (P07947 whole entry): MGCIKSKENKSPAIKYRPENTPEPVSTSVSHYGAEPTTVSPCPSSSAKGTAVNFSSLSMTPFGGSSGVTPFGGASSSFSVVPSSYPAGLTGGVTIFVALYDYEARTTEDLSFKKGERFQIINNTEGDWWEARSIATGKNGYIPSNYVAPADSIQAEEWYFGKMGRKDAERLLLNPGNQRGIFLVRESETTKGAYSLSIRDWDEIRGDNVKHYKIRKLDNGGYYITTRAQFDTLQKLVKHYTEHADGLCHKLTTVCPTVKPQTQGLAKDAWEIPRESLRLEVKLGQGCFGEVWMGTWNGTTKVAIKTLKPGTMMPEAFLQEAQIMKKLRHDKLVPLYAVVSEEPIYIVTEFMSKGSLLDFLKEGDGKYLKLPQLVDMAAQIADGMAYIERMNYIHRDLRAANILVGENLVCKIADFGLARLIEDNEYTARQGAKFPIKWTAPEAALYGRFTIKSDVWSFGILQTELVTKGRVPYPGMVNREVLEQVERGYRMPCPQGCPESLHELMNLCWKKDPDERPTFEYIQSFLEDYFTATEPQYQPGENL
T2 sequence (P12931 whole entry): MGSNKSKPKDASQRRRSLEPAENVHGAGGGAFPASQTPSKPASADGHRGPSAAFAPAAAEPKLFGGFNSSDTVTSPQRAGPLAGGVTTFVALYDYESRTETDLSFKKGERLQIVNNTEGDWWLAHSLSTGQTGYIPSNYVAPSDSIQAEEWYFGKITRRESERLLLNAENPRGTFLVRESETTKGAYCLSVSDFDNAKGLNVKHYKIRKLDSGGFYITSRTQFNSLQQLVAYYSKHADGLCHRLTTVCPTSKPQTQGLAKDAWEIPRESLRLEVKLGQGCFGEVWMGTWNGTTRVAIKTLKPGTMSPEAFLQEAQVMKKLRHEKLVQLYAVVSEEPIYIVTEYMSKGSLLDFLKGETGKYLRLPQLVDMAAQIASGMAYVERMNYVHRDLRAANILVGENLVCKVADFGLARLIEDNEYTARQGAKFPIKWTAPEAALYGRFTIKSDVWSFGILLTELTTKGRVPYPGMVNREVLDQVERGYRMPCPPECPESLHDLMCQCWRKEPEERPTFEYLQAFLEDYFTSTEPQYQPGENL

For `Nc1nc(N)c2nc(-c3ccc(O)cc3)c(-c3ccc(O)cc3)nc2n1` [6,7-Bis(4-hydroxyphenyl)-pteridine-2,4-diamine], in assay [1], the remaining activity at 0.5 µM is 94% and the remaining activity at 5 µM was 46%.

As usually defined, the IC50 is the concentration at which inhibition is half-maximal. As for `Nc1nc(N)c2nc(-c3ccc(O)c(O)c3)c(-c3ccc(O)c(O)c3)nc2n1` [6,7-bis(3,4-dihydroxyphenyl)-pteridine-2,4-diamine dihydrochloride salt], the half-inhibitory concentration (IC50) turned out to be 2600 nM at recombinant human c-Src and 1100 nM on recombinant human Yes.

For `Nc1nc(O)c2nc(-c3cccc(O)c3)c(-c3cccc(O)c3)nc2n1` [2-Amino-6,7-bis-(3-hydroxy-phenyl)-pteridin-4-ol], in assay [1], the remaining activity at 0.5 µM was 102% and the remaining activity at 5 µM is 99%. The IC50 in assay [2] is 48000 nM.

`Nc1ncnc2nc(-c3ccc(O)c(O)c3)c(-c3ccc(O)c(O)c3)nc12` [4-[4-amino-6-(3,4-dihydroxyphenyl)pteridin-7-yl]benzene-1,2-diol]: the IC50 in assay [2] amounted to 968 nM.

With `Cl.Cl.Nc1nc(N)c2nc(-c3cccc(O)c3)c(-c3cccc(O)c3)nc2n1`, the “% Infarct reduction” value in the assay on acute myocardial infarct is recorded as “Not significant”.

For `Nc1nc(N)c2nc(-c3ccc(O)c(O)c3)c(-c3ccc(O)c(O)c3)nc2n1` [6,7-bis(3,4-dihydroxyphenyl)-pteridine-2,4-diamine], in assay [1], the remaining activity at 0.5 µM amounted to 66% and the remaining activity at 5 µM amounted to 12%. Further, the half-maximal inhibitory concentration (IC50) in assay [2] turned out to be 273 nM.

Regarding `Cl.Nc1ncnc2nc(-c3ccc(O)c(O)c3)c(-c3ccc(O)c(O)c3)nc12` [4-[4-amino-6-(3,4-dihydroxyphenyl)pteridin-7-yl]benzene-1,2-diol hydrochloride salt], the “Score (scale of 0-12)” value was 6 in the assay with VEGF-induced edema (0.01 mg/kg IV), 3 in the assay on VEGF-induced edema (0.1 mg/kg IV) and 5 in the assay with VEGF-induced edema (1 mg/kg IV). Moreover, the IC50 on recombinant human c-Src stood at 1300 nM.

As to `Nc1nnc2cc(-c3ccccc3C(F)(F)F)ccc2n1` [7-(2-Trifluoromethyl-phenyl)-benzo[1,2,4]triazin-3-ylamine], the half-maximal inhibitory concentration (IC50) on recombinant human c-Src was found to be 9200 nM; at recombinant human Yes it was 7000 nM.

On to `Nc1cncc2nc(-c3ccc(O)cc3)c(-c3ccc(O)cc3)nc12` [2,3-Bis(4-hydroxyphenyl)-pyrido[3,4-b]pyrazin-8-ylamine], for which, in assay [1], the remaining activity at 0.5 µM turned out to be 101% and the remaining activity at 5 µM stood at 94%.

Turning to `Nc1ncnc2nc(-c3ccc(O)c(O)c3)c(-c3ccc(O)c(O)c3)nc12` [4-[4-amino-6-(3,4-dihydroxyphenyl)pteridin-7-yl]benzene-1,2-diol methanesulfonate salt], the concentration for half-maximal inhibition (IC50) on recombinant human c-Src came out at 800 nM.

Regarding `Nc1cncc2nc(-c3cccc(O)c3)c(-c3cccc(O)c3)nc12` [2,3-Bis(3-hydroxyphenyl)-pyrido[3,4-b]pyrazin-8-ylamine hydrochloride salt], in assay [1], the remaining activity at 0.5 µM worked out at 101% and the remaining activity at 5 µM amounted to 90%.

Turning to `Cc1cccc(C)c1-c1cc(C)c2nc(Nc3ccccc3)nnc2c1` [[7-(2,6-Dimethyl-phenyl)-5-methyl-benzo[1,2,4]triazin-3-yl]-phenyl-amine], at recombinant human c-Src, the IC50 is 294 nM.

Consider `Nc1nnc2cc(-c3cccc4ccccc34)ccc2n1` [7-Naphthalen-1-yl-benzo[1,2,4]triazin-3-ylamine], for which the 50% inhibitory concentration (IC50) on recombinant human c-Src was 900 nM; on recombinant human Yes, 9300 nM.

For `Nc1ccc2nc(-c3ccc(O)c(O)c3)c(-c3ccc(O)c(O)c3)nc2n1` [compound C, 2,3-Bis(3,4-dihydroxyphenyl)-pyrido[2,3-b]pyrazin-6-ylamine dihydrochloride salt], the values for the IC50 on recombinant human c-Src and at recombinant human Yes were 1300 nM and 756 nM, respectively.

`Oc1ccc(CNc2ncnc3ncc(-c4ccccc4)nc23)cc1O`: the half-inhibitory concentration (IC50) on recombinant human c-Src came out at 420 nM.

Consider `Nc1ncnc2nc(-c3ccc(O)cc3)c(-c3ccc(O)cc3)nc12` [6,7-bis(4-hydroxyphenyl)-pteridin-4-ylamine], for which, in assay [1], the remaining activity at 0.5 µM was found to be 102% and the remaining activity at 5 µM amounted to 85%.

For `Nc1ncc2nc(-c3cccc(O)c3)c(-c3cccc(O)c3)nc2n1` [6,7-bis(3-hydroxyphenyl)-pteridine-2-amine], the concentration for half-maximal inhibition (IC50) was determined as 27600 nM on recombinant human c-Src and 3800 nM on recombinant human Yes.

Turning to `O=C(Nc1ccccc1-c1cc2ccccc2[nH]1)c1cccnc1C(=O)O` [3-[2-(1H-Indol-2-yl)-phenyicarbamoyl]-pyridine-2-carboxylic acid], in the assay on VEGF-induced edema (0.5 mg/kg IV), the “Score (scale of 0-12)” value was determined as 5.

Regarding `CN(C)S(=O)(=O)c1ccc2c(c1)/C(=C/c1cc3c([nH]1)CCCC3)C(=O)N2` [SU6656, reference compound], the “% Infarct reduction” value in the assay with cerebral stroke is on record as “Not significant”.

Consider `O=C(Nc1ccccc1-c1cc2ccccc2[nH]1)c1ccc(O)c(O)c1` [3,4-Dihydroxy-N-(2-(1H-indol-2-yl)-phenyl)-benzamide], for which the IC50 is 337 nM at recombinant human c-Src and 303 nM at recombinant human Yes.

Turning to `Nc1ncnc2nc(-c3cccc(O)c3)c(-c3cccc(O)c3)nc12` [6,7-Bis(3-hydroxyphenyl)-pteridine-4-ylamine hydrobromide salt], at recombinant human c-Src, the half-inhibitory concentration (IC50) was found to be 8800 nM.

With `Nc1nc(N)c2nc(-c3ccccc3)c(-c3ccccc3)nc2n1` [compound B, 6,7-diphenyl-pteridine-2,4-diamine], in assay [1], the remaining activity at 0.5 µM was 101% and the remaining activity at 5 µM came to 81%.

Regarding `Nc1nnc2cc(-c3cccc(O)c3)ccc2n1` [3-(3-Amino-benzo[1,2,4]triazin-7-yl)-phenol], the values for the concentration for half-maximal inhibition (IC50) at recombinant human c-Src and on recombinant human Yes were 12000 nM and 6800 nM, respectively.

For `Nc1ncnc2nc(-c3ccccn3)c(-c3ccccn3)nc12` [6,7-Di-pyridin-2-yl-pteridin-4-ylamine], the “% Infarct reduction” value in the assay with cerebral stroke was “Not significant”.

`Nc1cncc2nc(-c3ccc(O)c(O)c3)c(-c3ccc(O)c(O)c3)nc12` [2,3-Bis(3,4-dihydroxyphenyl)-pyrido[3,4-b]pyrazin-8-ylamine hydrochloride salt]: the 50% inhibitory concentration (IC50) on recombinant human c-Src was 1600 nM; at recombinant human Yes it was 1000 nM.

Consider `Oc1nc(O)c2nc(-c3ccc(O)c(O)c3)c(-c3ccc(O)c(O)c3)nc2n1` [6,7-bis(3,4-dihydroxyphenyl)pteridine-2,4-diol], for which the concentration for half-maximal inhibition (IC50) on recombinant human c-Src was found to be 1800 nM; at recombinant human Yes, 900 nM.

For `Nc1nc(N)c2nc(CNCc3ccc4ccccc4c3)cnc2n1` [6-{[(Naphthalen-2-ylmethyl)-amino]-methyl-pteridine-2,4-diamine], the “Score (scale of 0-12)” value in the assay on VEGF-induced edema (0.1 mg/kg IV) is reported as 4.

`Nc1ncnc2nc(-c3cccc(O)c3)c(-c3cccc(O)c3)nc12` [6,7-bis(3-hydroxyphenyl)-pteridin-4-ylamine hydrochloride salt]: the IC50 at recombinant human c-Src worked out at 10000 nM; on recombinant human Yes, 6300 nM.

`Cc1ccc(-c2nn(C(C)(C)C)c3ncnc(N)c23)cc1` [PP1, reference compound]: in the assay with cerebral stroke, the “Infarct area in mm^3 (mean ± SEM)” value is 35.4 ± 6.4 mm^3 and the “% Infarct reduction” value was “Not significant”.

Consider `Oc1ccc(CCNc2ncnc3ncc(-c4ccccc4)nc23)cc1O` [4-[2-(6-Phenyl-pteridin-4-ylamino)-ethyl]benzene-1,2-diol], for which the IC50 on recombinant human c-Src stood at 317 nM.
